ChEMBL document CHEMBL1129485, “Bis(31/31') ([CYS(31), Trp(32), Nva(34)] NPY-(31-36)): a specific NPY Y-1 receptor antagonist” (J Med Chem, 1996)
Positions of bridges follow the written chain, without caps; N, C: chain ends. Non-standard residues stand in square brackets, D forms with d. Residues, ends and D or L forms follow the SMILES beside them. Chains are numbered I, II in the order given. Nva = CCC[C@H](N)C(=O)O

Key:
[1] = target: T1, Neuropeptide Y receptor type 2 (Homo sapiens, UniProt P49146); assay: Compound was tested for the displacement of [125I]-PYY(3-36) (SK-N-BE2) from Neuropeptide Y receptor type 2 in the membranes prepared from cells; type: cell membranes
T1 sequence (P49146 whole entry): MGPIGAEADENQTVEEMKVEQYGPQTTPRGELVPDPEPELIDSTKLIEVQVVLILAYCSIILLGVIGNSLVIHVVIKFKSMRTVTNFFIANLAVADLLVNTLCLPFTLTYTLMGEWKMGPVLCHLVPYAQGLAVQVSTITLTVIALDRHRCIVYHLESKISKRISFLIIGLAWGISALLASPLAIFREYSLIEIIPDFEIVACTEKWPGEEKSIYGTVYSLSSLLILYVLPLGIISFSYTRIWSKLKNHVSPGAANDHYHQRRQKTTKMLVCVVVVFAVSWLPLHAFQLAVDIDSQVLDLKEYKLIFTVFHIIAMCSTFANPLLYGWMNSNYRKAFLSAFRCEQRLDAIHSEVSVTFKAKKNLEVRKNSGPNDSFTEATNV

[2] = target: T2, Neuropeptide Y receptor type 1 (Homo sapiens, UniProt P25929); assay: Compound was tested for the displacement of [125I]-PYY (SK-N-MC) from Neuropeptide Y receptor type 1 in the membranes prepared from cells; type: cell membranes
T2 sequence (P25929 whole entry): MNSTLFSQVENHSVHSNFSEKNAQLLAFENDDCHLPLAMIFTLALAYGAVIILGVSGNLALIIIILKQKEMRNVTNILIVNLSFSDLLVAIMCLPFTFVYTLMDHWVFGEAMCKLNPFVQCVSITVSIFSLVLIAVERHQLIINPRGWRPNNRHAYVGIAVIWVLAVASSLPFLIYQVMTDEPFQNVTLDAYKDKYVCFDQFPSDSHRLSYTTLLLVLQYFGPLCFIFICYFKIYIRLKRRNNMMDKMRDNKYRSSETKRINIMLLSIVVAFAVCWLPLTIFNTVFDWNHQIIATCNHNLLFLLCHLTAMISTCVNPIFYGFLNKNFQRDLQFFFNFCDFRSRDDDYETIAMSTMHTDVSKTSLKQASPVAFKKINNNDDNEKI

SMILES	Ki [1] [µM]	Ki [2] [µM]
CCC[C@H](NC(=O)[C@H](CCCN=C(N)N)NC(=O)[C@H](Cc1c[nH]c2ccccc12)NC(=O)[C@H](CSSC[C@H](NC(=O)[C@H](CC(C)C)NC(=O)[C@H](Cc1c[nH]c2ccccc12)NC(=O)[C@@H](N)Cc1ccc(O)cc1)C(=O)N[C@@H](Cc1c[nH]c2ccccc12)C(=O)N[C@@H](CCCN=C(N)N)C(=O)N[C@@H](CCC)C(=O)N[C@@H](CCCN=C(N)N)C(=O)N[C@@H](Cc1ccc(O)cc1)C(N)=O)NC(=O)[C@H](CC(C)C)NC(=O)[C@H](Cc1c[nH]c2ccccc12)NC(=O)[C@@H](N)Cc1ccc(O)cc1)C(=O)N[C@@H](CCCN=C(N)N)C(=O)N[C@@H](Cc1ccc(O)cc1)C(N)=O	0.621	0.093
CCC[C@H](NC(=O)[C@H](CCCN=C(N)N)NC(=O)[C@@H](Cc1c[nH]c2ccccc12)NC(=O)[C@H](CSSC[C@H](NC(=O)[C@H](CC(C)C)NC(=O)[C@H](Cc1c[nH]c2ccccc12)NC(=O)[C@@H](N)Cc1ccc(O)cc1)C(=O)N[C@H](Cc1c[nH]c2ccccc12)C(=O)N[C@@H](CCCN=C(N)N)C(=O)N[C@@H](CCC)C(=O)N[C@@H](CCCN=C(N)N)C(=O)N[C@@H](Cc1ccc(O)cc1)C(N)=O)NC(=O)[C@H](CC(C)C)NC(=O)[C@H](Cc1c[nH]c2ccccc12)NC(=O)[C@@H](N)Cc1ccc(O)cc1)C(=O)N[C@@H](CCCN=C(N)N)C(=O)N[C@@H](Cc1ccc(O)cc1)C(N)=O	0.704	0.143
CCC[C@H](NC(=O)[C@H](CCCNC(=N)N)NC(=O)[C@H](Cc1c[nH]c2ccccc12)NC(=O)[C@H](CSSC[C@H](NC(=O)[C@H](CC(C)C)NC(=O)[C@@H](NC(=O)[C@@H](N)Cc1ccc(O)cc1)[C@@H](C)CC)C(=O)N[C@@H](Cc1c[nH]c2ccccc12)C(=O)N[C@@H](CCCNC(=N)N)C(=O)N[C@@H](CCC)C(=O)N[C@@H](CCCNC(=N)N)C(=O)N[C@@H](Cc1ccc(O)cc1)C(N)=O)NC(=O)[C@H](CC(C)C)NC(=O)[C@@H](NC(=O)[C@@H](N)Cc1ccc(O)cc1)[C@@H](C)CC)C(=O)N[C@@H](CCCNC(=N)N)C(=O)N[C@@H](Cc1ccc(O)cc1)C(N)=O (I: H-YILCWR[Nva]RY-NH2 / II: H-YILCWR[Nva]RY-NH2; disulfide I:4-II:4)	0.988	0.095
CCC[C@H](NC(=O)[C@H](CCCNC(=N)N)NC(=O)[C@H](Cc1c[nH]c2ccccc12)NC(=O)[C@@H](N)CSSC[C@H](N)C(=O)N[C@@H](Cc1c[nH]c2ccccc12)C(=O)N[C@@H](CCCNC(=N)N)C(=O)N[C@@H](CCC)C(=O)N[C@@H](CCCNC(=N)N)C(=O)N[C@@H](Cc1ccc(O)cc1)C(N)=O)C(=O)N[C@@H](CCCNC(=N)N)C(=O)N[C@@H](Cc1ccc(O)cc1)C(N)=O (I: H-CWR[Nva]RY-NH2 / II: H-CWR[Nva]RY-NH2; disulfide I:1-II:1)	> 10	0.046

Next, values leading:

Ki [1] [µM]	Ki [2] [µM]	SMILES
3.41	0.044	CCC[C@H](NC(=O)[C@H](CCCN=C(N)N)NC(=O)[C@H](Cc1c[nH]c2ccccc12)NC(=O)[C@H](CSSC[C@H](NC(=O)[C@H](CC(C)C)NC(=O)[C@H](CC(N)=O)NC(=O)[C@@H](NC(=O)[C@@H](N)Cc1ccc(O)cc1)[C@@H](C)CC)C(=O)N[C@@H](Cc1c[nH]c2ccccc12)C(=O)N[C@@H](CCCN=C(N)N)C(=O)N[C@@H](CCC)C(=O)N[C@@H](CCCN=C(N)N)C(=O)N[C@@H](Cc1ccc(O)cc1)C(N)=O)NC(=O)[C@H](CC(C)C)NC(=O)[C@H](CC(N)=O)NC(=O)[C@@H](NC(=O)[C@@H](N)Cc1ccc(O)cc1)[C@@H](C)CC)C(=O)N[C@@H](CCCN=C(N)N)C(=O)N[C@@H](Cc1ccc(O)cc1)C(N)=O (I: H-YINLCWR[Nva]RY-NH2 / II: H-YINLCWR[Nva]RY-NH2; disulfide I:5-II:5)
3.98	0.049	CCC[C@H](NC(=O)[C@H](CCCN=C(N)N)NC(=O)[C@@H](NC(=O)[C@H](CSSC[C@H](NC(=O)[C@H](CC(C)C)NC(=O)[C@@H](NC(=O)[C@@H](N)Cc1ccc(O)cc1)[C@@H](C)CC)C(=O)N[C@H](C(=O)N[C@@H](CCCN=C(N)N)C(=O)N[C@@H](CCC)C(=O)N[C@@H](CCCN=C(N)N)C(=O)N[C@@H](Cc1ccc(O)cc1)C(N)=O)[C@@H](C)O)NC(=O)[C@H](CC(C)C)NC(=O)[C@@H](NC(=O)[C@@H](N)Cc1ccc(O)cc1)[C@@H](C)CC)[C@@H](C)O)C(=O)N[C@@H](CCCN=C(N)N)C(=O)N[C@@H](Cc1ccc(O)cc1)C(N)=O (I: H-YILCTR[Nva]RY-NH2 / II: H-YILCTR[Nva]RY-NH2; disulfide I:4-II:4)
2.08	0.036	CCC[C@H](NC(=O)[C@H](CCCN=C(N)N)NC(=O)[C@@H](NC(=O)[C@H](CSSC[C@H](NC(=O)[C@H](CC(C)C)NC(=O)[C@H](CC(N)=O)NC(=O)[C@@H](NC(=O)[C@@H](N)Cc1ccc(O)cc1)[C@@H](C)CC)C(=O)N[C@H](C(=O)N[C@@H](CCCN=C(N)N)C(=O)N[C@@H](CCC)C(=O)N[C@@H](CCCN=C(N)N)C(=O)N[C@@H](Cc1ccc(O)cc1)C(N)=O)[C@@H](C)O)NC(=O)[C@H](CC(C)C)NC(=O)[C@H](CC(N)=O)NC(=O)[C@@H](NC(=O)[C@@H](N)Cc1ccc(O)cc1)[C@@H](C)CC)[C@@H](C)O)C(=O)N[C@@H](CCCN=C(N)N)C(=O)N[C@@H](Cc1ccc(O)cc1)C(N)=O (I: H-YINLCTR[Nva]RY-NH2 / II: H-YINLCTR[Nva]RY-NH2; disulfide I:5-II:5)
